Measurements as given in patent publication US4954512A, “Anti-ulcer composition” (Okamoto; Shosuke, priority 1987, dated 1990).
Structures can show the parent of a compound that is named as a salt. Where a SMILES comes first, the peptide text is derived from it. [ ]: non-standard residue; d: D form. Trx = NC[C@H]1CC[C@H](C(=O)O)CC1; Sar = CNCC(=O)O

How the values were obtained:
hydrochloric acid ulcer = assay: Action against hydrochloric acid ulcer; assay type: in vivo, Wistar-strain male rats; conditions: po, 1 h; rat, 100 mg/kg peroral administration, 30 min before 0.6 N-HCl; ulcer area; read-out: Anti-ulcer action (hydrochloric acid ulcer model), Inhibition rate against non-administered animal
Description: (1) Action against hydrochloric acid ulcer Wistar-strain male rats (weight 180 g, 6 to 7 rats per group) were starved for 18 hours and left without water for 4 hours before the test. The test drug was formed into an aqueous solution or suspended in an aqueous solution of 0.5% carboxymethyl cellulose and administered orally at a volume of 0.5 ml/100 g, and 30 minutes after administration, 1 ml of 0.6 N-HCl was orally administered. One hour after the administration, the stomach was excised and injected with 5 ml of 5% formalin solution. After the formalin fixation for 10 min., the stomach was cut open along the greater curvature, and the area (mm^2) of an ulcer generated at the corpus of stomach was measured. The total sum of the area of ulcer generated per rat was compared with that of the control group. The control group was administered with water or a 0.5% aqueous carboxymethyl cellulose solution. The Ulcer Index was determined as the inhibition ratio (%).

[1] = test system: restrictive water immersion stress ulcer; assay: Action against restrictive water immersion stress ulcer; assay type: in vivo, Wistar-strain male rats; conditions: po; rat, 100 mg/kg peroral administration, 7 hours water immersion stress at 23° C.; ulcer length; read-out: Anti-ulcer action (stress ulcer), Inhibition rate against non-administered animal
Description: (2) Action against restrictive water immersion stress ulcer Wistar-strain male rats (weight 180 g, 6 to 8 rats per group) were starved for 18 hours before the test. The test drug was administered orally by the same method as used in (1). Thirty minutes after the administration, the rats were placed in a restrictive stress cage, and immersed to the xiphoideus process of the rat in water of 23° C. After the loading stress for 7 hours, the stomach was excised and, fixed in formalin by the same method as used in (1), and the length (mm) of the ulcer was measured. The total length of an ulcer generated per rat was compared with that of the control group. An Ulcer Index was determined as the inhibition ratio (%).

| Compound | inhibition in vivo at 100 mg/kg (hydrochloric acid ulcer) [%] | inhibition in vivo at 100 mg/kg [1] [%] |
| --- | --- | --- |
| CC1CCC(NC(=O)[C@H](Cc2ccccc2)NC(=O)c2ccc(NC(=N)N)cc2)CC1 (mixture of isomers) [Compound 12, N-(4-guanidinobenzoyl)-L-phenylalanine 4-cis/trans-methylcyclohexylamide hydrochloride] | 89.4 | 65.8 |
| CCOC(=O)c1ccc(NC(=O)[C@H](Cc2ccccc2)NC(=O)[C@H]2CC[C@H](CN)CC2)cc1 [Compound 21] | 89.8 |  |
| CN(C)C(=O)[C@H](Cc1ccccc1)NC(=O)c1ccc(CN)cc1 [Compound 17] | 57.5 |  |
| N=C(N)c1ccc(C(=O)N[C@@H](Cc2ccccc2)C(=O)Nc2ccc(C(N)=O)cc2)cc1 [Compound 28, N-(4-amidinobenzoyl)-L-phenylalanine 4-carbamoylanilide methanesulfonate] | 69.8 | 57.4 |
| NC[C@H]1CC[C@H](C(=O)N[C@@H](Cc2ccccc2)C(N)=O)CC1 [Compound 1, N-[trans-4-aminomethylcyclohexyl-carbonyl]-L-phenylalanine amide hydrochloride] | 77.1 | 88.2 |
| CC(=O)c1ccc(NC(=O)[C@H](Cc2ccccc2)NC(=O)[C@H]2CC[C@H](CN)CC2)cc1 [Compound 8] | 73.2 | 65 |
| CCOC(=O)c1cccc(NC(=O)[C@H](Cc2ccccc2)NC(=O)[C@H]2CC[C@H](CN)CC2)c1 [Compound 18] | 89.2 |  |
| CC(=O)c1ccc(NC(=O)[C@H](Cc2ccccc2)NC(=O)c2ccc(C(=N)N)cc2)cc1 [Compound 29] | 81 | 83.7 |
| CCOC(=O)C1CCN(C(=O)[C@H](Cc2ccccc2)NC(=O)[C@H]2CC[C@H](CN)CC2)CC1 [Compound 11] | 68.4 | 85.2 |
| CCOC(=O)c1ccccc1NC(=O)[C@H](Cc1ccccc1)NC(=O)[C@H]1CC[C@H](CN)CC1 [Compound 3] | 91.4 | 52.2 |
| CCOC(=O)C1CCCC(NC(=O)[C@H](Cc2ccccc2)NC(=O)[C@H]2CC[C@H](CN)CC2)C1 (some centres unmarked) [Compound 6] | 77.4 |  |
| CN(C)C(=O)[C@H](Cc1ccccc1)NC(=O)[C@H]1CC[C@H](CNC(=N)N)CC1 [Compound 19, N-(trans-4-guanidinomethylcyclohexylcarbonyl)-L-phenylalanine dimethylamide methanesulfonate] | 52.5 |  |
| CCOC(=O)C1CCC(NC(=O)[C@H](Cc2ccccc2)NC(=O)[C@H]2CC[C@H](CN)CC2)CC1 (some centres unmarked) [Compound 4] | 71.4 | 74.6 |
| NC[C@H]1CC[C@H](C(=O)N[C@@H](Cc2ccccc2)C(=O)Nc2ccc(C(N)=O)cc2)CC1 [Compound 13, N-(trans-4-aminomethylcyclohexyl-carbonyl)-L-phenylalanine 4-carbamoylanilide hydrochloride] | 85.7 | 64.8 |
| CN(C)C(=O)[C@H](Cc1ccccc1)NC(=O)c1ccc(C(=N)N)cc1 [Compound 22, N-(4-amidinobenzoyl)-L-phenylalanine dimethylamide hydroiodide] | 86 | 76.2 |
| NC[C@H]1CC[C@H](C(=O)N[C@@H](Cc2ccc(OCc3ccccc3)cc2)C(=O)Nc2cccnc2)CC1 [Compound 31] | 92.3 | 60 |

| Compound | inhibition in vivo at 100 mg/kg (hydrochloric acid ulcer) [%] | inhibition in vivo at 100 mg/kg [1] [%] |
| --- | --- | --- |
| NCc1ccc(C(=O)N[C@@H](Cc2ccccc2)C(N)=O)cc1 [Compound 2, N-(4-aminomethylbenzoyl)-L-phenyl-alanineamide hydrochloride] | 58.2 |  |
| NCc1ccc(C(=O)N[C@@H](Cc2ccccc2)C(=O)Nc2ccc(C(N)=O)cc2)cc1 [Compound 27, N-(4-aminomethylbenzoyl)-L-phenylalanine 4-carbamoylanilide hydrochloride] | 78.1 |  |
| CC(=O)c1ccc(NC(=O)[C@H](Cc2ccccc2)NC(=O)c2ccc(CN)cc2)cc1 [Compound 16, N-(4-aminomethylbenzoyl)-L-phenylalanine 4-acetylanilide hydrochloride] | 96.6 |  |
| NC[C@H]1CC[C@H](C(=O)N[C@@H](Cc2ccccc2)C(=O)Nc2ccc(C(=O)O)cc2)CC1 [Compound 14, N-(trans-4-aminomethylcyclohexylcarbonyl)-L-phenylalanine 4-hydroxycarbonylanilide hydrochloride] | 74.8 |  |
| CCOC(=O)CCNC(=O)[C@H](Cc1ccccc1)NC(=O)[C@H]1CC[C@H](CN)CC1 [Compound 30] | 67.5 |  |
| CCOC(=O)c1ccc(CNC(=O)[C@H](Cc2ccccc2)NC(=O)[C@H]2CC[C@H](CN)CC2)cc1 [Compound 10] | 60.4 | 86.1 |
| CNC(=O)[C@H](Cc1ccccc1)NC(=O)[C@H]1CC[C@H](CN)CC1 [Compound 7, N-(trans-4-aminomethylcyclohexyl-carbonyl)-L-phenylalanine methylamide hydrochloride] | 52.6 |  |
| CCOC(=O)CN(C)C(=O)[C@H](Cc1ccccc1)NC(=O)[C@H]1CC[C@H](CN)CC1 [Compound 25] (H-[Trx]-Phe-[Sar]-OEt) | 57.3 |  |
| CN(C)C(=O)c1ccc(NC(=O)[C@H](Cc2ccccc2)NC(=O)[C@H]2CC[C@H](CN)CC2)cc1 [Compound 24] | 82.6 | 70.6 |
| CCOC(=O)[C@H](CO)NC(=O)[C@H](Cc1ccccc1)NC(=O)[C@H]1CC[C@H](CN)CC1 [Compound 20, Ethyl N-N-(trans-4-aminomethylcyclohexylcarbonyl)-L-phenylalanyl-L-serinate hydrochloride] (H-[Trx]-Phe-Ser-OEt) | 54.3 | 70 |
| NC[C@H]1CC[C@H](C(=O)N[C@@H](Cc2ccccc2)C(=O)Nc2cccc(C(N)=O)c2)CC1 [Compound 26] | 80.8 |  |
| CC(C)(C)NC(=O)[C@H](Cc1ccccc1)NC(=O)[C@H]1CC[C@H](CN)CC1 [Compound 15] | 73.1 | 76.4 |
| CN(C)C(=O)[C@H](Cc1ccccc1)NC(=O)[C@H]1CC[C@H](CN)CC1 [Compound 9, N-(trans-4-aminomethylcyclohexyl-carbonyl)-L-phenylalanine dimethylamide hydrochloride] | 73.6 | 77.6 |
| CNC(=O)c1ccc(NC(=O)[C@H](Cc2ccccc2)NC(=O)[C@H]2CC[C@H](CN)CC2)cc1 [Compound 23, N-(trans-4-aminomethylcyclohexylcarbonyl)-L-phenylalanine 4-methylcarbamoylanilide hydrochloride] | 79.9 |  |
| CC(=O)c1ccc(NC(=O)C(Cc2cccc(Oc3ccccc3)c2)NC(=O)[C@H]2CC[C@H](CN)CC2)cc1 (mixture of isomers) [Compound 32, N-(trans-4-aminomethylcyclohexylcarbonyl)-3-phenoxy-DL-phenylalanine 4-acetylanilide hydrochloride] | 86.4 | 67.4 |
| CCOC(=O)CNC(=O)[C@H](Cc1ccccc1)NC(=O)[C@H]1CC[C@H](CN)CC1 [Compound 5] (H-[Trx]-Phe-Gly-OEt) | 53.3 | 76 |
